Reference: patent publication US20230257817A1, “IDENTIFICATION OF GENOME REGIONS ASSOCIATED WITH KIDNEY DISEASE AND TREATMENT” (THE RESEARCH INSTITUTE AT NATIONWIDE CHILDREN'S HOSPITAL, priority 2020, published 2023)
“Also recorded” adds a separate entry of the source.

Tests used:
[1] = system: human primary mesangial cells; test: Real-time PCR of 17 genes-of-interest in PAN-exposed human primary mesangial cells; assay type: cell-based; details: PAN 5 μg/ml, 24 h and 48 h
Protocol: (§1) The conditionally immortalized human podocyte cell line (MS13) and human primary mesangial cells were cultured as previously described. Sharma et al., J Am Soc Nephrol 28, 2618-2630 (2017). 3×10^4 undifferentiated podocytes were plated on a 6-well plate and were incubated at 37° C. for 12-14 days prior to the start of experiment whereas 1×10^5 mesangial cells were plated on a 6-well plate a day prior to start of experiment. Further, podocytes and mesangial cells were serum starved 0/N with 1% FCS containing RPMI media, before the experiment. The following day, podocytes were exposed to 2.5 and 5 μg/ml of PAN for 24 and 48 hrs whereas in case of mesangial cells, 5 μg/ml of PAN (Sigma; St. Louis, Mo.) was added for 24 and 48 hrs. Cells were lysed in 400 μl of RNA lysis buffer provided by Ambion (#AM1560).
(§2) Total RNA from the cultured podocytes and mesangial cells was isolated using the miRVANA miRNA isolation kit (Ambion, ThermoScientific) according to the manufacturer's instructions. The RNA was eluted in 40 μl of nuclease free water. The purity and yield of RNA was determined by measuring the absorbance at 230, 260 and 280 nm. Briefly, 1 μg of RNA was subjected to DNase (Ambion, Thermo Fisher Scientific) digestion at 37° C. for 30 min followed by DNase inactivation with 5 mM EDTA at 75° C. for 10 min.
(§3) […] of total isolated RNA was reverse transcribed to cDNA by iScript cDNA synthesis kit according to manufacturer's instructions (#1708890. Bio-Rad). The resulting cDNA was diluted to 1:5 with nuclease free water. Diluted cDNA was finally used for relative mRNA quantitation of 17 targets-of-interest using SYBER green based Bio-Rad CFX96 Real-Time PCR machine (Bio-Rad Labs, Hercules, Calif.). Both RPL19 and PPIA were used as reference genes.

[2] = system: human podocyte cell line (MS13); test: Real-time PCR of 17 genes-of-interest in PAN-exposed human podocyte cell line; assay type: cell-based; details: PAN 2.5 and 5 μg/ml, 24 h and 48 h
Protocol: as §1, §2, §3

rats with PAN-induced NS [3] = test: PAN-induced nephrotic syndrome rat model, urine protein-to-creatinine ratio; assay type: in vivo; details: for Urine protein to creatinine ratio (UPCR): day 11 after single PAN dose 50 mg/kg IV, MP 15 mg/kg i.p. daily, Pio 10 mg/kg oral gavage daily, n=4 rats per group
Protocol: (§4) Proteinuria was induced in male Wister rats (body weight[…], age˜45-50 d) by single tail vein injection of Puromycin aminonucleoside (PAN, #P7130, Sigma; St. Louis, Mo.) −50 mg/kg, n=4 on Day 0, while the control group received saline injection (n=4). PAN-induced proteinuria was treated daily with methylprednisolone (15 mg/kg, n=4, Solu-Medrol; Pfizer Inc., New York, N.Y.) via intraperitoneal injection or with pioglitazone (10 mg/kg, Actos; Takeda, Deerfield, Ill.) via oral gavage until day 11 of post PAN-injection. Morning spot urine samples were collected on Day 0 (before PAN injection) and day 11 for urinary protein: creatinine ratio (UPC) analysis. Kidneys were harvested at day 11 and were processed for glomerular isolation.
UPC was measured by Antech Diagnostics (Morrisville, N.C.) using standard techniques that are fully compliant with Good Laboratory practice regulations. See Agrawal et al., Sci Rep 6, 24392 (2016)

glomerular genes = test: RNA sequencing of glomeruli isolated from PAN-NS rats (glomerular transcriptome); assay type: in vivo, rat
Protocol: as §4
Glomeruli were isolated using sieving method where kidney cortex was pared using curved scissors into the petri lid with cold PBS, minced well, drained and washed onto pre-moistened No. 80 sieve. Using squeeze bottle, minced kidneys on No. 80 sieve were washed thoroughly and transferred to No. 140 sieve. No. 140 and 200 are stacked together to catch smaller material. Kidney material was then ground through No. 140 sieve with very gentle pressure using bottom of cold round 250 ml beaker. The ground kidney was washed back and forth well over sieve No. 140 onto No. 200. This catch material is the glomeruli. The glomeruli were washed with cold PBS to get rid of any contaminants and the final washed material was collected into labeled 50 ml conical tube. The tube was spun at ˜1500 rpm for 3 min Glomeruli precipitate was then suspended in RLT buffer (Qiagen, Germantown, Md.) containing β-mercaptoethanol (#M6250 Sigma).
Total RNA from the isolated glomeruli was isolated using the RNeasy mini Kit (Qiagen) according to the manufacturer's instructions. The purity and yield of RNA was determined by measuring the absorbance at 230, 260 and 280 nm. Briefly, 1 ug of RNA was subjected to DNase (Ambion, Thermo Fisher Scientific) digestion at 37° C. for 30 min followed by DNase inactivation with 5 mM EDTA at 75° C. for 10 min.
RNA quality was assessed using the Agilent 2100 Bioanalyzer and RNA Nano Chip Kit (Agilent Technologies, CA) to ensure that the RNA Integrity Number (RIN) was ≥7. RNA-seq libraries were then generated using TruSeq Standard total RNA with Ribo-Zero Globin Complete kit (Illumina, CA). Briefly, ribosomal RNA (rRNA) was removed from 350 ng of total RNA with biotinylated, target-specific oligos combined with Ribo-Zero rRNA removal beads from the Human/Mouse/Rat Globin kit. To generate directional signals in RNA seq data, libraries were constructed from first strand cDNA using ScriptSeq™ v2 RNA-Seq library preparation kit (Epicentre Biotechnologies, WI). Briefly, 50 ng of rRNA-depleted RNA was fragmented and reverse transcribed using random primers containing a 5′ tagging sequence, followed by 3′ end tagging with a terminal-tagging oligo to yield di-tagged, single-stranded cDNA. Following purification using a magnetic bead-based approach, the di-tagged cDNA was amplified by limit-cycle PCR using primer pairs that anneal to tagging sequences and add adaptor sequences required for sequencing cluster generation. Amplified RNA-seq libraries were purified using AMPure XP System (Beckman Coulter). The quality of libraries was determined via Agilent 2200 TapeStation using High Sensitivity D1000 tape, and quantified using Kappa SYBR®Fast qPCR kit (KAPA Biosystems, Inc, MA). Approximately, 90-125 million paired-end 150 bp reads were generated per sample using the Illumina HiSeq4000 platform. Raw data were converted to FASTQ using Illumina's bc12fastq application. Sequencing adapters matching at least 6 bases were then removed from the reads, as well as low-quality bases (<10) using v1.10 of cutadapt. […]

rats with PAN-induced NS [4] = details: earlier study, Agrawal et al., Sci Rep 6, 24392 (2016); cited from earlier work
[5] = PAN-NS glomeruli, day 11, FDR<0.05, of 1,872 DEGs
[6] = overlap analysis, common to both treatments

CN(C)c1ncnc2c1ncn2[C@@H]1O[C@H](CO)[C@@H](N)[C@H]1O [PAN, Puromycin aminonucleoside]
CPT1B, PDK4, ANGPTL4, TAGLN and CDKN1A mRNA expression [1]: significant increase in expression | SERPINE1, MMP14, CCL2, LIF, BIRC5 mRNA expression [1]: did not follow the expected pattern | MMP2 mRNA expression ([1]; P=0.007 vs. controls): induced; also recorded: markedly upregulated | ACTA2 mRNA expression ([1]; P=0.045 vs. controls): induced; also recorded: markedly upregulated | CPT1B, PDK4, ANGPTL4, TAGLN and CDKN1A mRNA expression [2]: significant increase in expression | SERPINE1, MMP14, CCL2, LIF, BIRC5 mRNA expression [2]: did not follow the expected pattern | LGALS3 mRNA expression ([2]; P=0.0003 vs. controls): induction of expression; also recorded: exclusively enhanced | Urine protein to creatinine ratio (UPCR) (rats with PAN-induced NS [3]): 57.2 ± 41.6 mg/mg | number of glomerular genes significantly downregulated compared to healthy controls (glomerular genes; [5]): 858 | number of glomerular genes significantly upregulated compared to healthy controls (glomerular genes; [5]): 1,014

CCc1ccc(CCOc2ccc(CC3SC(=O)NC3=O)cc2)nc1 (stereo not shown) [Pio, pioglitazone]
reduction of proteinuria (UPCR) vs PAN (rats with PAN-induced NS [3]; day 11, PAN+MP or PAN+Pio vs PAN): 94% | Urine protein to creatinine ratio (UPCR) (rats with PAN-induced NS [3]): 3.45 ± 0.82 mg/mg | effect on transcriptional profiles of endothelial cell-specific genes (glomerular genes; 42 endothelial genes): neither MP nor Pio treatment had notable effects | PAN-induced gene expression alterations in podocyte- and mesangial cell-specific gene clusters (glomerular genes; 66 podocyte and 43 mesangial genes, PCA plots): substantially reversed | number of the 858 glomerular genes downregulated in PAN-NS significantly ameliorated (glomerular genes; FDR<0.05 vs PAN): 144 | number of the 1,014 glomerular genes upregulated in PAN-NS significantly ameliorated (glomerular genes; FDR<0.05 vs PAN): 346 | share of the 858 glomerular genes downregulated in PAN-NS significantly ameliorated (glomerular genes; FDR<0.05 vs PAN): 17% | share of the 1,014 glomerular genes upregulated in PAN-NS significantly ameliorated (glomerular genes; FDR<0.05 vs PAN): 34% | PAN-induced dysregulation of glomerular gene sets associated with extracellular matrix and cyclins (GSEA) (glomerular genes; GSEA, FDR<0.05): significantly ameliorated | number of DEGs significantly induced by PAN but ameliorated by both MP and Pio (glomerular genes; [6]): 319 | number of DEGs significantly suppressed by PAN but ameliorated by both MP and Pio (glomerular genes; [6]): 126 | proteinuria in PAN-induced rat model of NS, previously reported (rats with PAN-induced NS [4]): significantly reduced proteinuria; also recorded: significant proteinuria reduction
